This passage reports IC50 results from ChEMBL document CHEMBL1157957, “9,11-Secosterols from the soft corals Sinularia lochmodes and Sinularia leptoclados” (J Nat Prod, 2006).

Values after ≈ are worked out from the molar mass of the structure shown.

Format in all cases: functional, cell-based
One experiment deals with HepG2. Put plainly: Cytotoxicity against human HepG2 cells by MTT assay.
The next experiment relates to A549. The experiment is described as follows: Cytotoxicity against human A549 cells by MTT assay.
The next experiment has as its system MDA-MB-231. Put plainly: Cytotoxicity against human MDA-MB-231 cells by MTT assay.
The test system of another experiment is MCF7. The experiment is described as follows: Cytotoxicity against human MCF7 cells by MTT assay.

Take `C=C(CC[C@@H](C)[C@H]1CC[C@@H]([C@@H]2CC[C@H]3C[C@@H](O)CC[C@]3(C)C2=O)[C@]1(C)CCO)C(C)C`: the IC50 in the experiment with HepG2 stood at 8.2 µg/mL (≈ 19 µM); in the experiment on A549, 9.8 µg/mL (≈ 22.6 µM); in the experiment on MDA-MB-231, 11.3 µg/mL (≈ 26.1 µM); in the experiment with MCF7, 9.2 µg/mL (≈ 21.3 µM).
Turning to `C=C(CC[C@@H](C)[C@H]1CC[C@@H]([C@@H]2CC=C3C[C@@H](O)CC[C@]3(C)C2=O)[C@]1(C)CCO)C(C)C`, the IC50 in the experiment on HepG2 was found to be 9.1 µg/mL (≈ 21.1 µM); in the experiment with A549 it was 9.1 µg/mL (≈ 21.1 µM); in the experiment on MDA-MB-231 it was 9.9 µg/mL (≈ 23 µM); with MCF7 it was 4.5 µg/mL (≈ 10.4 µM).
As to `CC(C)C(C)CC[C@@H](C)[C@H]1CC[C@@H]([C@@H]2CC=C3C[C@@H](O)CC[C@]3(C)C2=O)[C@]1(C)CCO` (stereo not given in full), the half-inhibitory concentration (IC50) in the experiment with HepG2 was 14.1 µg/mL (≈ 32.6 µM); in the experiment on A549 it was 16.8 µg/mL (≈ 38.8 µM); with MDA-MB-231 it was 15 µg/mL (≈ 34.7 µM); in the experiment on MCF7 it was 15.7 µg/mL (≈ 36.3 µM).
Take `COc1cccc2c1C(=O)c1c(O)c3c(c(O)c1C2=O)C[C@@](O)(C(=O)CO)C[C@@H]3O[C@H]1C[C@H](N)[C@H](O)[C@H](C)O1` [DOXORUBICIN]: the IC50 with HepG2 is 0.3 µg/mL (≈ 0.552 µM); in the experiment with A549, 0.4 µg/mL (≈ 0.736 µM); in the experiment on MCF7, 0.4 µg/mL (≈ 0.736 µM).
